Source: patent US7169907B2, “Derivatives, immunogens, and antibodies for detecting ecstasy-class drugs” (Roche Diagnostics Operations, Inc., priority 2002, dated 2007)

Tests used:
antibody NEAMP-1.3 = experiment: Cross-reactivity assay (competitive ELISA) of antibody NEAMP-1.3; format: binding, mice; conditions: ED50 of standard divided by ED50 of drug, times 100
Procedure: (§1) By determining the drug concentration that results in a 50% reduction in binding (ED 50) of a standard, methamphetamine, dividing by the ED50 of each other drug, and then multiplying the result by 100, the percent cross-reactivities shown in Table 2 can be calculated.
Microplates were coated with 100 μL Methamphetamine-BSA conjugate 28 and separate plates with 100 μL N-ethylamphetamine-BSA 26 (Q=BSA, 26b) at 1 μg/mL in 0.1 M carbonate buffer, pH 9.5 for 1 hour at 37° C. (humidified).
A criterion for selection was binding to the Methamphetamine-BSA conjugate 28. Table 5 presents binding data for a portion of the screening of the Meth-BSA 28 and NEAMP-BSA 26 (Q=BSA, 26b) coated plates.
(§2) Supernatants are subjected to serial dilutions and re-tested in the ELISA screen above. The dilution providing for about a 50% reduction from the maximum OD is chosen for proceeding to cross-reactivity testing. This consists of repeating the preceding assay with the antibody at the chosen dilution and in the presence of varying concentrations of drugs.

antibody MDMA-2.1.1 = experiment: Cross-reactivity assay (competitive ELISA) of antibody MDMA-2.1.1; format: binding, mice; conditions: ED50 of standard divided by ED50 of drug, times 100
Description: as §1
as §2, with “drugs. The charts shown in FIG. 5 and FIG. 6 present the results of such determinations.” for “drugs.”

SMILES	Percent Cross-Reactivity (antibody NEAMP-1.3) [%]	% Cross-reactivity (antibody MDMA-2.1.1) [%]
CN[C@@H](C)[C@H](O)c1ccccc1 [I-ephedrine]	6.7	
CCC(Cc1ccc2c(c1)OCO2)NC (stereo not drawn) [MBDB, 3,4-methylenedioxyphenyl-N-methylbutanamine]	20	
CCNC(C)Cc1ccc2c(c1)OCO2 (stereo not drawn) [MDEA, 3,4-methylenedioxy-N-ethylamphetamine]	507	
CNC(C)Cc1ccc2c(c1)OCO2 (stereo not drawn) [MDMA, 3,4-methylenedioxy-N-methylamphetamine]	114	
C[C@H]1[C@H](c2ccccc2)OCCN1C [Phendimetrazine]	0.6	
CN[C@@H](C)[C@@H](O)c1ccccc1 [Pseudoephedrine, pseudoephedrine]	2.0	
C[C@H](N)Cc1ccccc1 [d-AMP, d-amphetamine]	32.5	
CN[C@@H](C)Cc1ccccc1 [d-MAMP, d-methamphetamine]	100	
CN[C@@H](C)Cc1ccc2c(c1)OCO2 [d-MDMA]		100
